In patent US20200368315A1, “ANTIMICROBIAL PEPTIDES AND ADMIXTURES THEREOF SHOWING ANTIMICROBIAL ACTIVITY AGAINST GRAM-NEGATIVE PATHOGENS” (priority 2017, published 2020):
Converted amounts (≈) assume the structure as drawn. “And” between values parts separate entries of the source, which are not always exact repeats. Equal values may be shown once. Read-outs that look alike come from different tables or passages of the source.

Experiments:
[1] = test system: A. baumannii LMG01041; type: cell-based, Acinetobacter baumannii
Description: (§1) The test of synergistic effect was processed by conducting standard chequerboard broth microdilution assays. Nisin (Drug X) was loaded two fold serially diluted from row 1 to 10 in X-axis while GNPs (Drug Y) were loaded in eight two fold serially diluted concentrations from line A to H in Y-axis (FIG. 1). The original concentrations of peptides were MICs of each. Row 11 are used as growth control with no peptide was included, while row 12 with MHB medium-only wells was included as a sterility control as referred before. 50 uL fresh bacterial suspension was added to well 1-11 and final volume of each well on the plate is 100 uL.
(§2) To determine whether the combination therapy is additive, synergistic or antagonistic, fractional inhibitory concentration (FIC) indices were calculated. FICI=FICa+FICb=MICac/MICa+MICbc/MICb. The MICa/MICb is the MIC of compound A/B alone. MICac is the MIC of compound A in combination with compound B and MICbc is the MIC of compound B when it was combination with compound A. […]. FICa is FIC of compound A while FICb is FIC of compound B. The FICI is interpreted as follows: synergistic, FICI≤0.5; additive, 0.5<FICI<1; indifferent, 1<FICI<2; antagonistic, FICI>2.

[2] = test system: L. lactis MG1363; details: L. lactis MG1363
[3] = test system: P. aeruginosa LMG 6395; assay: microbe, parasite or virus in culture; type: cell-based, Pseudomonas aeruginosa; details: P. aeruginosa LMG 6395
Experimental: (§3) Escherichia coli, Klebsiella pneumoniae, Pseudomonas aeruginosa, Acinetobacter baumannii, Enterobacter aerogenes were grown in Luria-Bertani (LB) broth shaken (200 rpm) or on LB agar at 37° C. […] MICs tests were performed in duplicate by a liquid growth inhibition microdilution assays in sterilized polypropylene microtiter plates according to Wiegand and […] [27]. […] The suspension was diluted in a ratio of 1:100 using Mueller Hinton Broth (MHB) and the final inoculum is 5*10^5 CFU/mL. […] The antimicrobials were diluted serially by 1/2 one by one and 50 uL diluted bacterial suspension were added to each well to make the final volume to be 100 uL. Growth control was accomplished by remove 10 uL from well 11 and dilute 1000 times to plate 1/10 suspension on the solid medium. […] The number of colonies on the control agar plate should be around 50 to ensure the concentration of the inoculum and the effectiveness of the experiment. The lowest concentration of the antimicrobials that inhibits visible growth of the indicator is identified as MIC.

[4] = test system: Gram-negative pathogens; type: cell-based; details: L-form GNPs alone; five Gram-negative pathogens
Experimental: as §3

[5] = test system: E. coli LMG15862; assay: microbe, parasite or virus in culture; type: cell-based, Escherichia coli; details: E. coli LMG15862
Experimental: as §3

[6] = test system: K. pneumoniae LMG20218; assay: microbe, parasite or virus in culture; type: cell-based, Klebsiella pneumoniae; details: K. pneumoniae LMG20218
Experimental: as §3

[7] = test system: K. pneumoniae LMG20218; type: cell-based, Klebsiella pneumoniae
Description: as §1, §2

[8] = test system: P. aeruginosa LMG 6395; type: cell-based, Pseudomonas aeruginosa
Description: as §1, §2

[9] = test system: E. coli LMG15862
Experimental: (§4) The test of synergistic effect was processed by conducting standard chequerboard broth microdilution assays. […] Row 11 are used as growth control with no peptide was included, while row 12 with MHB medium-only wells was included as a sterility control as referred before. 50 uL fresh bacterial suspension was added to well 1-11 and final volume of each well on the plate is 100 uL.
(§5) The test of synergistic effect was processed as method 1.4.
as §2

[10] = test system: P. aeruginosa LMG 6395
Experimental: as §4, §5, §2

[11] = test system: K. pneumoniae LMG20218
Experimental: as §4, §5, §2

[12] = test system: E. aerogenes LMG 02094
Experimental: as §4, §5, §2

[13] = test system: A. baumannii LMG01041
Experimental: as §4, §5, §2

[14] = test system: E. aerogenes LMG 02094; type: cell-based, Enterobacter aerogenes
Description: as §1, §2

[15] = test system: E. coli LMG15862; type: cell-based, Escherichia coli
Description: as §1, §2

[16] = test system: E. aerogenes LMG 02094; assay: microbe, parasite or virus in culture; type: cell-based, Enterobacter aerogenes; details: E. aerogenes LMG 02094
Experimental: as §3

[17] = test system: A. baumannii LMG01041; assay: microbe, parasite or virus in culture; type: cell-based, Acinetobacter baumannii; details: A. baumannii LMG01041
Experimental: as §3

[18] = MIC of GNP when used with the MICac concentration of nisin
[19] = MIC of nisin in combination with the GNP at the MICbc concentration
[20] = MIC of GNP in combination with vancomycin at the MICac concentration
[21] = MIC of vancomycin in combination with the GNP at the MICbc concentration

With CC[C@H](C)[C@H](NC(=O)[C@H](CCCNC(=N)N)NC(=O)[C@H](CCCNC(=N)N)NC(=O)[C@H](Cc1ccccc1)NC(=O)[C@H](CC(C)C)NC(=O)[C@H](CCCNC(=N)N)NC(=O)[C@@H](N)CCCNC(=N)N)C(=O)N[C@@H](CC(C)C)C(=O)N[C@@H](CCCNC(=N)N)C(=O)N[C@@H](Cc1c[nH]c2ccccc12)C(=O)N[C@@H](CC(C)C)C(N)=O [GNP-6] the MICb ([1]; MIC of GNP alone) was 2 µM, the MICbc [1, 18] was 0.5 µM and the MICac [1, 19] was 0.75 µM. The FICI ([1]; nisin + GNP) was 0.375, the “MIC value of antimicrobial compounds alone” value [2] was 1 µM and the “MICb (MIC of GNP alone)” value ([3]; L-form GNP, Table 7) was 3 µM. The “MIC value of antimicrobial compounds alone” value [3] was 3 µM, the MIC value ([3]; alone) was 3 µM (≈ 4.75 µg/mL) and the “Activity ranking amongst all the GNPs” value [4] was “most potent”. The “MIC value of antimicrobial compounds alone” value [5] was 2 µM, the “MICb (GNP concentration when used alone)” value ([5]; L-form GNP, Table 6) was 2 µM and the MIC value ([5]; alone) was 2 µM (≈ 3.17 µg/mL). The “MIC value of antimicrobial compounds alone” value [6] was 4 µM, the “MICb (MIC of GNP alone)” value ([6]; L-form GNP, Table 7) was 4 µM and the MIC value ([6]; alone) was 4 µM (≈ 6.34 µg/mL). It also gave an MICb ([7]; MIC of GNP alone) of 4 µM, an MICbc [7, 18] of 0.5 µM and an MICac [7, 19] of 3 µM. The FICI ([7]; nisin + GNP) was 0.188, the MICb ([8]; MIC of GNP alone) was 3 µM and the MICbc [8, 18] was 0.75 µM. The MICac [8, 19] was 4.5 µM, the FICI ([8]; nisin + GNP) was 0.375 and the MICb ([9]; MIC of GNP alone) was 2 µM. The MICbc [9, 20] was 0.5 µM, the MICac [9, 21] was 16 µM and the FICI ([9]; vancomycin + GNP) was 0.5. For the same compound, the MICb ([10]; MIC of GNP alone) was 3 µM, the MICbc [10, 20] was 1.5 µM and the MICac [10, 21] was 32 µM. It also gave an FICI ([10]; vancomycin + GNP) of 0.75, an MICb ([11]; MIC of GNP alone) of 4 µM and an MICbc [11, 20] of 0.25 µM. The MICac [11, 21] was 32 µM and 16 µM, the FICI ([11]; vancomycin + GNP) was 0.313 and 0.25 and 0.5 and the MICb ([12]; MIC of GNP alone) was 8 µM. The MICbc [12, 20] was 2 µM, the MICac [12, 21] was 8 µM and the FICI ([12]; vancomycin + GNP) was 0.291. The MICb ([13]; MIC of GNP alone) was 2 µM, the MICbc [13, 20] was 0.5 µM and 1 µM and the MICac [13, 21] was 8 µM and 4 µM. For the same compound, the FICI ([13]; vancomycin + GNP) was 0.5 and 0.625, the MICb ([14]; MIC of GNP alone) was 8 µM and the MICbc [14, 18] was 1 µM. The MICac [14, 19] was 1 µM, the FICI ([14]; nisin + GNP) was 0.156 and the MICb ([15]; MIC of GNP alone) was 2 µM. For the same compound, the MICbc [15, 18] was 0.5 µM, the MICac [15, 19] was 1.5 µM and the FICI ([15]; nisin + GNP) was 0.375. The “MIC value of antimicrobial compounds alone” value [16] was 8 µM, the “MICb (MIC of GNP alone)” value ([16]; L-form GNP, Table 7) was 8 µM and the MIC value ([16]; alone) was 8 µM (≈ 12.7 µg/mL). For the same compound, the “MIC value of antimicrobial compounds alone” value [17] was 2 µM, the “MICb (MIC of GNP alone)” value ([17]; L-form GNP, Table 7) was 2 µM and the MIC value ([17]; alone) was 2 µM (≈ 3.17 µg/mL).
